Measurements reported in patent publication US10857127B2, “Vaginal delivery systems containing selective estrogen receptor modulator (SERM) and uses thereof” (Azure Biotech, Inc., priority 2016, dated 2020).

Legend:
[1] = hydroperoxides, cited from earlier work; for Average HPO: average of lots tested; for High HPO Lot: highest lot; for Low HPO Lot: lowest lot
[2] = Peroxide value of excipients at the opening of the container; format: physicochemical; conditions: measured after opening the container
[3] = Dissolution studies of Lasofoxifene in organic solvents and surfactants; format: physicochemical; conditions: Lasofoxifene 1 mg/ml in the labelled solvent/surfactant; visual examination
[4] = as above; format: physicochemical; conditions: visual examination
Method: The solubility of Lasofoxifene was investigated by screening various organic solvents and surfactants in increasing concentrations. The term “formulation” may refer to a pharmaceutical composition comprising […] pharmaceutically acceptable excipients.
First, 1 mg of Lasofoxifene was weighed into Eppendorf vessels and 500 μl of organic solvents and surfactants as listed in Table 20 were added. In cases of insufficient dissolution of the API, samples were treated with ultrasound for 30 min and, if necessary, heated to 50° C. while shaking (300 rpm). Afterwards, samples were examined visually regarding drug dissolution. In case of entire dissolution, the experiment was repeated with increasing drug concentrations until maximum dissolution was achieved. In addition, further organic solvents and surfactants were tested.

Q: With `OC[C@H]1O[C@@H](O[C@H]2[C@H](O)[C@@H](O)C(O)O[C@@H]2CO)[C@H](O)[C@@H](O)[C@H]1O` (some centres unmarked) [Lactose] as the molecule, how does the “Average HPO” value [1] read?
A: The value was under 10 nmol/g.

Q: And the “High HPO Lot” value [1]?
A: Its value is 10 nmol/g.

Q: And the “Low HPO Lot” value [1]?
A: Its value is under 10 nmol/g.

Q: Which “Average HPO” value [1] does the source give for `OC[C@@H](O)[C@@H](O)[C@H](O)[C@H](O)CO` [Mannitol] here?
A: The value was under 10 nmol/g.

Q: And the “High HPO Lot” value [1]?
A: The value was under 10 nmol/g.

Q: What about the “Low HPO Lot” value [1] of the same molecule?
A: Its value is under 10 nmol/g.

Q: What does the source list for Tetraglycol [Tetraglycol (TG)]?
A: Peroxide value [2]: 1.55 µmol; Dissolution of Lasofoxifene in various organic solvents and surfactants, 1 mg/ml [3]: dissolved; Dissolution of Lasofoxifene in various organic solvents and surfactants, 2 mg/ml ([4]; Lasofoxifene 2 mg/ml in the labelled solvent/surfactant): dissolved; Dissolution of Lasofoxifene in various organic solvents and surfactants, 3 mg/ml ([4]; Lasofoxifene 3 mg/ml in the labelled solvent/surfactant): partially; Dissolution of Lasofoxifene in various organic solvents and surfactants, 6 mg/ml ([4]; Lasofoxifene 6 mg/ml in the labelled solvent/surfactant): not dissolved

Q: Which “Average HPO” value [1] does the source give for `OC[C@H]1O[C@@](CO)(O[C@H]2O[C@H](CO)[C@@H](O)[C@H](O)[C@H]2O)[C@@H](O)[C@@H]1O` [Sucrose] here?
A: The value was under 10 nmol/g.

Q: And the “High HPO Lot” value [1]?
A: The value was 20 nmol/g.

Q: What about the “Low HPO Lot” value [1] of the same molecule?
A: The value was under 10 nmol/g.
